One data set addresses rat EP4 receptor (Rattus norvegicus (Rat), UniProt P43114). Description: EP4 antagonistic activity measurement using prostanoid receptor subtype expressing cells (cAMP). Format: cell-based. To be noted: CHO cells expressing rat EP4 receptor; inhibition of cAMP production by PGE2 10 nM. The method, then: CHO cells expressing rat EP4 receptor subtypes were prepared according to the methods of Nishigaki et al. (FEBS Letters, Vol. 364, p. 339-341, 1995), and used for experiment. Cultured subconfluent cells were detached, and suspended in an assay medium (MEM containing 1 mmol/L IBMX, 1% HSA) in a concentration of 1×10^6 cells/mL. For reaction, PGE2 was added to the cell suspension (25 μL) in a final concentration of 10 nmol/L, either alone or as a 25-μL PGE2 solution containing the test compound. After 30 minutes of reaction at room temperature, the amount of cAMP in the cells was quantified according to the method in the descriptions of the cAMP assay kit (CISBIO).
The antagonistic effect (IC50 value) of the test compound was calculated as a value that represents an inhibition rate against a reaction with PGE2 alone at 10 nM, a concentration that produces a submaximal cAMP producing effect.
In general terms: Changes in cAMP serve as a functional read-out for many G protein-coupled receptors.

A short description of data set [1]: Pharmacokinetics test (hepatic microsome stability test). To be noted: human hepatic microsome 1 mg/mL, 37° C., 60 min, 1 μmol/L.

Each structure is given as a SMILES string.

Sequence of rat EP4 receptor (P43114 whole entry): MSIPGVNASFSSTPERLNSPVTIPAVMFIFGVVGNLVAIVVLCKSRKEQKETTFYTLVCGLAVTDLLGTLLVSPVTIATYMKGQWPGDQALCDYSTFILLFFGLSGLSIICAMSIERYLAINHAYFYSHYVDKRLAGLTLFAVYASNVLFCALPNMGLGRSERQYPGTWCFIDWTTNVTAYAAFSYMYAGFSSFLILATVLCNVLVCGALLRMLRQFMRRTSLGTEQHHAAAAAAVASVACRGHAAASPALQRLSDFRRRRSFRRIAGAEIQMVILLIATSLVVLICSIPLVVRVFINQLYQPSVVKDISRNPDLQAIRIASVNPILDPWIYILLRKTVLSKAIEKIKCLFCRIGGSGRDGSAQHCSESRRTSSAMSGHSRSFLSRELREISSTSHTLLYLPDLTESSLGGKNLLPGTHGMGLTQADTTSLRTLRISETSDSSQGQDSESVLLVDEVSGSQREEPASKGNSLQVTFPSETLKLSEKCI

By IC50 is commonly meant the point on the concentration scale where inhibition reaches its midpoint. Lower therefore signals inhibition by little substance. `CNC(=O)c1ccc2c(c1)[C@]1(CCO2)C[C@H]1C(=O)Nc1cc(C#N)ccc1CCCC(=O)O` [Example 1, 4-[4-Cyano-2-({[(2′R,4S)-6-(methylcarbamoyl)-2,3-dihydrospiro[chromene-4,1′-cyclopropan]-2′-yl]carbonyl}amino)phenyl]butanoic acid]: inhibition on rat EP4 receptor was half-maximal at 2.5 nM (IC50). Moreover, the “Remaining rate (%)” value in data set [1] was determined as 94%. As to `CC(C)(C)NC(=O)c1ccc2c(c1)[C@]1(CCO2)C[C@H]1C(=O)Nc1cc(C#N)ccc1CCCC(=O)O` [Example 2-3, 4-{4-Cyano-2-[({(2′R, 4S)-6-[(2-methyl-2-propanyl)carbamoyl]-2,3-dihydrospiro[chromene-4,1′-cyclopropan]-2′-yl}carbonyl)amino]phenyl}butanoic acid], it took 3.5 nM to reach half-maximal inhibition at rat EP4 receptor (IC50). Also, the “Remaining rate (%)” value in data set [1] was 91%. The matching figures for `COC[C@H](C)NC(=O)c1ccc2c(c1)[C@]1(CCO2)C[C@H]1C(=O)Nc1cc(C#N)ccc1CCCC(=O)O` [Example 2-4, 4-[4-Cyano-2-({[(2′R,4S)-6-{[(2S)-1-methoxy-2-propanyl]carbamoyl}-2,3-dihydrospiro[chromene-4,1′-cyclopropan]-2′-yl]carbonyl}amino)phenyl]butanoic acid]: 3.3 nM and 86%. `Cn1cc(NC(=O)c2ccc3c(c2)[C@]2(CCO3)C[C@H]2C(=O)Nc2cc(C#N)ccc2CCCC(=O)O)cn1` [Example 2-5] had an IC50 on rat EP4 receptor of 1.3 nM. On to `Cn1ccc(NC(=O)c2ccc3c(c2)[C@]2(CCO3)C[C@H]2C(=O)Nc2cc(C#N)ccc2CCCC(=O)O)n1` [Example 2-9, 4-{4-Cyano-2-[({(2′R,4S)-6-[(1-methyl-1H-pyrazol-yl)carbamoyl]-2,3-dihydrospiro[chromene-4,1′-cyclopropan]-2′-yl}carbonyl)amino]phenyl}butanoic acid], for which the midpoint of inhibition against rat EP4 receptor, the IC50, lay at 4.5 nM. Moreover, the “Remaining rate (%)” value in data set [1] is recorded as 92%. The matching figures for `N#Cc1ccc(CCCC(=O)O)c(NC(=O)[C@@H]2C[C@]23CCOc2ccc(C(=O)NC4CC4)cc23)c1` [Example 2-10, 4-[4-cyano-2-({[(2′R,4S)-6-(cyclopropylcarbamoyl)-2,3-dihydrospiro[chromene-4,1′-cyclopropan]-2′-yl]carbonyl}amino)phenyl]butanoic acid]: 4 nM and 94%. On the same counts, the results for `N#Cc1ccc(CCCC(=O)O)c(NC(=O)[C@@H]2C[C@]23CCOc2ccc(C(=O)NC4CCCC4)cc23)c1` [Example 2-14, 4-[4 Cyano 2-({[(2′R,4S)-6-(cyclopentylcarbamoyl)-2,3-dihydrospiro[chromene-4,1′-cyclopropan]-2′-yl]carbonyl}amino)phenyl]butanoic acid] are 4.5 nM and 96%. The matching figures for `N#Cc1ccc(CCCC(=O)O)c(NC(=O)[C@@H]2C[C@]23CCOc2ccc(C(=O)Nc4ccccn4)cc23)c1` [Example 2-23, 4-[4-Cyano-2-({[(2′R,4S)-6-(2-pyridinylcarbamoyl)-2,3-dihydrospiro[chromene-4,1′-cyclopropan]-2′-yl]carbonyl}amino)phenyl]butanoic acid]: 4.5 nM and 100%. In turn, `N#Cc1ccc(CCCC(=O)O)c(NC(=O)[C@@H]2C[C@]23CCOc2ccc(C(=O)Nc4cccnn4)cc23)c1` [Example 2-29, 4-[4-Cyano-2-({[(2′R,4S)-6-(3-pyridazinylcarbamoyl)-2,3-dihydrospiro[chromene-4,1′-cyclopropan]-2′-yl]carbonyl}amino)phenyl]butanoic acid] registered an IC50 at rat EP4 receptor of 2.5 nM. Further, the “Remaining rate (%)” value in data set [1] was found to be 80%. On rat EP4 receptor, `N#Cc1ccc(CCCC(=O)O)c(NC(=O)[C@@H]2C[C@]23CCOc2ccc(C(=O)NCC(F)F)cc23)c1` [Example 2-32, 4-{4-Cyano-2-[({(2′R,4S)-6-[(2,2-difluoroethyl)carbamoyl]-2,3-dihydrospiro[chromene-4,1′-cyclopropan]-2′-yl}carbonyl)amino]phenyl}butanoic acid] gave an IC50 of 3.7 nM. Moreover, the “Remaining rate (%)” value in data set [1] is on record as 85%. The matching figures for `CN1CC[C@H](NC(=O)c2ccc3c(c2)[C@]2(CCO3)C[C@H]2C(=O)Nc2cc(C#N)ccc2CCCC(=O)O)C1` [Example 2-33, 4-[4-Cyano-2-({[(2′R,4S)-6-{[(3S)-1-methyl-3-pyrrolidinyl]carbamoyl}-2,3-dihydrospiro[chromene-4,1′-cyclopropan]-2′-yl]carbonyl}amino)phenyl]butanoic acid]: 9.7 nM and 89%.

Take `N#Cc1ccc(CCCC(=O)O)c(NC(=O)[C@@H]2C[C@]23CCOc2ccc(C(=O)Nc4ncccn4)cc23)c1` [Example 2-36, 4-[4-Cyano-2-({[(2′R,4S)-6-(2-pyrimidinylcarbamoyl)-2,3-dihydrospiro[chromene-4,1′-cyclopropan]-2′-yl]carbonyl}amino)phenyl]butanoic acid]: at rat EP4 receptor, the IC50 was 5.4 nM. Also, the “Remaining rate (%)” value in data set [1] turned out to be 100%. On the same counts, the results for `N#Cc1ccc(CCCC(=O)O)c(NC(=O)[C@@H]2C[C@]23CCOc2ccc(C(=O)Nc4ccon4)cc23)c1` [Example 2-37, 4-[4-Cyano-2-({[(2′R,4S)-6-(1,2-oxazol-3-ylcarbamoyl)-2,3-dihydrospiro[chromene-4,1′-cyclopropan]-2′-yl]carbonyl}amino)phenyl]butanoic acid] are 3.4 nM and 97%.

`N#Cc1ccc(CCCC(=O)O)c(NC(=O)[C@@H]2C[C@]23CCOc2ccc(C(=O)NC4CCC4)cc23)c1` [Example 2-38, 4-[4-Cyano-2-({[(2′R,4S)-6-(cyclobutylcarbamoyl)-2,3-dihydrospiro[chromene-4,1′-cyclopropan]-2′-yl]carbonyl}amino)phenyl]butanoic acid] gave a 50% inhibitory concentration (IC50) against rat EP4 receptor of 4.7 nM. Also, the “Remaining rate (%)” value in data set [1] is 100%. The matching figures for `CC(C)(C)n1cc(NC(=O)c2ccc3c(c2)[C@]2(CCO3)C[C@H]2C(=O)Nc2cc(C#N)ccc2CCCC(=O)O)cn1` [Example 2-39, 4-[4-Cyano-2-({[(2′R,4S)-6-{[1-(2-methyl-2-propanyl)-1H-pyrazol-4-yl]carbamoyl}-2,3-dihydrospiro[chromene-4,1′-cyclopropan]-2′-yl]carbonyl}amino)phenyl]butanoic acid]: 3.4 nM and 90%. Turning to `N#Cc1ccc(CCCC(=O)O)c(NC(=O)[C@@H]2C[C@]23CCOc2ccc(C(=O)NC4CCOCC4)cc23)c1` [Example 2-40, 4-[4-Cyano-2-({[(2′R,4S)-6-(tetrahydro-2H-pyran-4-ylcarbamoyl)-2,3-dihydrospiro[chromene-4,1′-cyclopropan]-2′-yl]carbonyl}amino)phenyl]butanoic acid], on rat EP4 receptor, the IC50 was determined as 7.2 nM. Also, the “Remaining rate (%)” value in data set [1] worked out at 100%. On the same counts, the results for `N#Cc1ccc(CCCC(=O)O)c(NC(=O)[C@@H]2C[C@]23CCOc2ccc(C(=O)Nc4ccno4)cc23)c1` [Example 2-41, 4-[4-Cyano-2-({[(2′R,4S)-6-(1,2-oxazol-5-ylcarbamoyl)-2,3-dihydrospiro[chromene-4,1′-cyclopropan]-2′-yl]carbonyl}amino)phenyl]butanoic acid] are 3.4 nM and 100%. The matching figures for `Cn1nccc1NC(=O)c1ccc2c(c1)[C@]1(CCO2)C[C@H]1C(=O)Nc1cc(C#N)ccc1CCCC(=O)O` [Example 2-43, 4-{4-Cyano-2-[({(2′R,4S)-6-[(1-methyl-1H-pyrazol-5-yl)carbamoyl]-2,3-dihydrospiro[chromene-4,1′-cyclopropan]-2′-yl}carbonyl)amino]phenyl}butanoic acid]: 3.6 nM and 100%. The matching figures for `CCCNC(=O)c1ccc2c(c1)[C@]1(CCO2)C[C@H]1C(=O)Nc1cc(C#N)ccc1CCCC(=O)O` [Example 2-44, 4-[4-Cyano-2-({[(2′R,4S)-6-(propylcarbamoyl)-2,3-dihydrospiro[chromene-4,1′-cyclopropan]-2′-yl]carbonyl}amino)phenyl]butanoic acid]: 2.5 nM and 100%. The compound `CCOCCNC(=O)c1ccc2c(c1)[C@]1(CCO2)C[C@H]1C(=O)Nc1cc(C#N)ccc1CCCC(=O)O` [Example 2-45, 4-{4-Cyano-2-[({(2′R,4S)-6-[(2-ethoxyethyl)carbamoyl]-2,3-dihydrospiro[chromene-4,1′-cycopropan]-2′-yl}carbonyl)amino]phenyl}butanoic acid] had an IC50 on rat EP4 receptor of 8.3 nM. In data set [1], the “Remaining rate (%)” value was determined as 100%.

As for `CCNC(=O)c1ccc2c(c1)[C@]1(CCO2)C[C@H]1C(=O)Nc1cc(C#N)ccc1CCCC(=O)O` [Example 2-46, 4-[4-Cyano-2-({[(2′R,4S)-6-(ethylcarbamoyl)-2,3-dihydrospiro[chromene-4,1′-cyclopropan]-2′-yl]carbonyl}amino)phenyl]butanoic acid], it took 3 nM to reach half-maximal inhibition on rat EP4 receptor (IC50). Besides, the “Remaining rate (%)” value in data set [1] turned out to be 90%. On the same counts, the results for `Cc1nnc(-c2ccc3c(c2)[C@]2(CCO3)C[C@H]2C(=O)Nc2cc(C#N)ccc2CCCC(=O)O)o1` [Example 3, 4-[4-Cyano-2-({[(2′R,4S)-6-(5-methyl-1,3,4-oxadiazol-2-yl)-2,3-dihydrospiro[chromene-4,1′-cyclopropan]-2′-yl]carbonyl}amino)phenyl]butanoic acid] are 2.7 nM and 100%.

For the origin of these results see patent publication US10077247B2, “Tricyclic spiro compound” (ONO PHARMACEUTICAL CO., LTD., priority 2015, dated 2018).
